These results are taken from US11590129B2, “Combination therapy with an antitumor alkaloid” (PHARMA MAR, S.A., priority 2010, dated 2023).

For assay [1], the system named is A549 human lung carcinoma cell line. Put plainly: MTT cytotoxicity assay in A549 cells: IC50 of single agents and combinations with PM01183. Conditions: Homo sapiens. The class given is cell-based. The procedure, abridged:
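A549 cells seeded at 5,000 per well, grown 24 h drug-free, then exposed to vehicle or compounds for 72 h, either singly or combined with PM01183. Combination responses plotted against dose ratio relative to an additivity line.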
Background: Tetrazolium dyes change colour on reduction, which living cells bring about.

For assay [2], the system named is A673 human rhabdomyosarcoma cell line. Put plainly: cells. The procedure, abridged:
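A673 cells seeded at 5,000 per well, grown 24 h drug-free, then exposed to compounds for 72 h. Viability by MTT reduction (8 h, 37 °C), formazan dissolved in DMSO. Results expressed as percentage of control cell growth.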

In assay [3] the test system is SK-MEL-2 human melanoma cell line. Put plainly: cells. In outline:
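SK-MEL-2 melanoma cells (5,000/well) grown 24 h drug-free, then exposed 72 h to vehicle or test compounds. Viability by MTT reduction (8 h, 37 °C), formazan dissolved in DMSO; results expressed as percentage of control cell growth.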

The test system of assay [4] is PC-3 human prostate cancer cell line. Put plainly: cells. In outline: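 Cells seeded at 5,000/well, grown 24 h drug-free, then exposed to vehicle or test compounds for 72 h. Viability by MTT reduction (8 h, 37 °C), formazan dissolved in DMSO. Values given as percentage of control cell growth.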
For assay [5], the system named is PANC-1 human pancreatic carcinoma cell line. Put plainly: cells. The procedure, abridged: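 Cells seeded at 5,000/well, left 24 h drug-free, then exposed to test compounds for 72 h. Viability read by MTT reduction (MTT added for 8 h at 37° C, formazan dissolved in DMSO).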
The test system of assay [6] is HGC-27 human gastric carcinoma cell line. Put plainly: cells.
Assay [7] relates to IGROV-1 human ovarian adenocarcinoma cell line. Put plainly: cells.
Assay [8] has as its system HepG2 human hepatocellular liver carcinoma cell line. Put plainly: MTT cytotoxicity assay in HepG2 cells: IC50 of single agents and combinations with PM01183. It counts as cell-based. Conditions: Homo sapiens.
The subject of assay [9] is MDA-MB-231 human breast adenocarcinoma cell line. Put plainly: cells.
For assay [10], the system named is RXF-393 human kidney carcinoma cell line. Put plainly: cells.
Assay [11] relates to HT-29 human colon adenocarcinoma cell line. Put plainly: cells. The procedure, abridged:
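HT-29 cells (5,000/well) were attached for 24 h, then exposed to vehicle or compounds for 72 h. Viability was read by MTT reduction, with 8 h MTT at 37° C and formazan dissolved in DMSO. Values are % of control cell growth.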

Assay [12] concerns U87-MG human glioblastoma cell line. Put plainly: cells.
In assay [13] the test system is JURKAT human leukemia cell line. Put plainly: cells. The procedure:
(§1) Additional serial dilutions were prepared in serum-free culture medium to achieve a final 4× concentration. Aliquots of 50 μL of each diluted compound were added per well.
(§2) JURKAT and MOLT-4 were the human leukemia cell lines selected for this assay, which were obtained from the American Type Culture Collection (ATCC).
(§3) Briefly, cells were seeded in 96 well microtiter plates at a density of 50000 cells per well in 150 μL of culture medium and incubated for 4-6 hours in drug-free medium before treatment with vehicle alone or test compounds for 72 hours.
(§4) After incubation, the cytotoxic effect was evaluated using a MTT reduction assay. 50 μL of MTT solution (1 mg/mL) were added to the wells and incubated for 15-17 hours at 37° C. until formazan crystals were formed. After gently removing the culture medium, DMSO was added to dissolve the insoluble purple formazan product into a colored solution. […] Results were expressed as percentage of control cell growth. The EC50 values (half-maximal effective concentration) used for the combination studies were calculated using Prism v5.02 software (GraphPad). EC50 was expressed as molar concentration and represented the mean of at least three independent assays.
(§5) b. In a second set of experiments, concentration-response curves for the agents tested, both alone and in two-drug combination, were performed, using the same methodology described in the previous paragraph.
(§6) Using these starting concentrations, constant serial dilutions were performed to generate the concentration-response curves for each set of drugs, alone and in combination.
(§7) Based on this equation, the term “combination index” (CI) is used as a quantitative measure of the degree of drug interactions. […] CI values were calculated by solving the equation for different values of fa (i.e., for different degrees of cell groth inhibition).
(§8) Data were analyzed using CalcuSyn software (Biosoft, Cambridge, UK). For statistical analysis and graphs Prism software (GraphPad, San Diego, USA) was used. All the results represent the mean of at least three independent experiments.

The test system of assay [14] is RAMOS human lymphoma cell line. Put plainly: cells. Here is the method:
as §3, §4, §6, §7, §8, §1
(§9) In the second set of assays, concentration-response curves for the agents tested, both alone and in two-drug combination, were performed.

The test system of assay [15] is U-937 human lymphoma cell line. Put plainly: cells. The procedure:
as §3, §4, §6, §7, §8, §1, §9

In assay [16] the test system is MOLT-4 human leukemia cell line. Put plainly: cells. Here is the method: as §1, §2, §3, §4, §5, §6, §7, §8
Where [17] appears, read: A549, 72 hours drug exposure, MTT, read-out: IC50.
Setting [18] is: HepG2, 72 hours drug exposure, MTT, read-out: IC50.
Where [19] appears, read: A673, 72 hours drug exposure, MTT.
[20] abbreviates: HGC-27, 72 hours drug exposure, MTT.
Setting [21] is: IGROV-1, 72 hours drug exposure, MTT.
[22] abbreviates: RXF-393, 72 hours drug exposure, MTT.
The mark [23] stands for this setting: HT-29, 72 hours drug exposure, MTT.
The mark [24] stands for this setting: U87-MG, 72 hours drug exposure, MTT.

Where two headings read alike, the source gives them in different places.

By IC50 is commonly meant the midpoint of a concentration-inhibition curve. The term EC50 denotes the concentration that produces a half-maximal response. Take `COc1cccc2c1C(=O)c1c(O)c3c(c(O)c1C2=O)C[C@@](O)(C(C)=O)C[C@@H]3O[C@H]1C[C@H](N)[C@H](O)[C@H](C)O1` [Daunorubicin, daunorubicin]: the IC50 in assay [1] (setting [17]) is 355 nM; in assay [2] (Homo sapiens, A673, 72 h), 520 nM; in assay [3] (Homo sapiens, SK-MEL-2, 72 h), 177 nM; in assay [4] (Homo sapiens, PC-3, 72 h), 1150 nM; in [5] (Homo sapiens, PANC-1, 72 h) it was 869 nM; in assay [6] (Homo sapiens, HGC-27, 72 h), 372 nM. The IC50 in assay [7] (Homo sapiens, IGROV-1, 72 h) was found to be 355 nM; in assay [8] (setting [18]) it was 300 nM; in assay [9] (Homo sapiens, MDA-MB-231, 72 h) it was 370 nM; in assay [10] (Homo sapiens, RXF 393, 72 h), 620 nM; in assay [11] (Homo sapiens, HT-29, 72 h), 532 nM; in assay [12] (Homo sapiens, U-87 MG, 72 h) it was 284 nM. For the same compound, the concentration giving a half-maximal response (EC50) came to 792 nM in assay [13] (Homo sapiens, Jurkat, 72 h); 315 nM in assay [14] (Homo sapiens, Ramos, 72 h); 304 nM in assay [15] (Homo sapiens, U-937, 72 h).
Regarding `COc1cc2c(cc1O)CCN[C@]21CS[C@@H]2c3c(OC(C)=O)c(C)c4c(c3[C@H](COC1=O)N1[C@@H]2[C@H]2c3c(cc(C)c(OC)c3O)C[C@@H]([C@@H]1O)N2C)OCO4` [ET-743, trabectedin], the IC50 in assay [1] (A549, 72 h) was found to be 22.5 nM; in [2] (Homo sapiens, A673, 72 h), 1.9 nM; in [3] (Homo sapiens, SK-MEL-2, 72 h), 2 nM; in assay [4] (Homo sapiens, PC-3, 72 h), 8 nM; in assay [5] (Homo sapiens, PANC-1, 72 h), 21 nM; in assay [6] (Homo sapiens, HGC-27, 72 h) it was 5.8 nM. In addition, the IC50 was 6.45 nM in assay [7] (Homo sapiens, IGROV-1, 72 h); 7.21 nM in assay [8] (HepG2, 72 h); 2 nM in assay [9] (Homo sapiens, MDA-MB-231, 72 h); 9.6 nM in assay [10] (Homo sapiens, RXF 393, 72 h); 5 nM in assay [12] (Homo sapiens, U-87 MG, 72 h). Also, the EC50 turned out to be 6.96 nM in assay [13] (Homo sapiens, Jurkat, 72 h); 3.84 nM in [16] (Homo sapiens, MOLT-4, 72 h); 9.55 nM in assay [14] (Homo sapiens, Ramos, 72 h); 8.62 nM in assay [15] (Homo sapiens, U-937, 72 h).
`CN(Cc1cnc2nc(N)nc(N)c2n1)c1ccc(C(=O)N[C@@H](CCC(=O)O)C(=O)O)cc1` [Methotrexate, methotrexate]: the IC50 in [3] (Homo sapiens, SK-MEL-2, 72 h) worked out at 100000 nM; in assay [4] (Homo sapiens, PC-3, 72 h), 120000 nM; in assay [5] (Homo sapiens, PANC-1, 72 h), 10000 nM; in assay [6] (Homo sapiens, HGC-27, 72 h) it was 33 nM; in assay [7] (Homo sapiens, IGROV-1, 72 h), 100000 nM; in assay [8] (HepG2, 72 h), 39.6 nM. Further, the IC50 in [9] (Homo sapiens, MDA-MB-231, 72 h) was 5940 nM; in assay [10] (Homo sapiens, RXF 393, 72 h), 175000 nM; in [12] (Homo sapiens, U-87 MG, 72 h) it was 50000 nM. Also, the EC50 in assay [13] (Homo sapiens, Jurkat, 72 h) was determined as 145 nM; in [16] (Homo sapiens, MOLT-4, 72 h), 43.9 nM; in assay [14] (Homo sapiens, Ramos, 72 h), 5020 nM; in assay [15] (Homo sapiens, U-937, 72 h) it was 26.3 nM.
For `COc1c(C)cc2c(c1O)[C@@H]1[C@@H]3Cc4c(OC(C)=O)c(C)c5c(c4[C@H](CNC(=O)/C=C/c4cccc(C(F)(F)F)c4)N3[C@@H](O)[C@H](C2)N1C)OCO5` [PM00104], the IC50 in assay [1] (setting [17]) was 7 nM; in [2] (Homo sapiens, A673, 72 h), 3 nM; in assay [3] (Homo sapiens, SK-MEL-2, 72 h), 2 nM; in assay [4] (Homo sapiens, PC-3, 72 h) it was 7.1 nM; in assay [5] (Homo sapiens, PANC-1, 72 h) it was 7.89 nM; in assay [6] (Homo sapiens, HGC-27, 72 h) it was 3.2 nM. The IC50 in assay [7] (Homo sapiens, IGROV-1, 72 h) was 3.3 nM; in assay [8] (setting [18]), 3 nM; in assay [9] (Homo sapiens, MDA-MB-231, 72 h) it was 1 nM; in assay [10] (Homo sapiens, RXF 393, 72 h), 5.4 nM. Moreover, the concentration giving a half-maximal response (EC50) in assay [13] (Homo sapiens, Jurkat, 72 h) was found to be 4.83 nM; in assay [16] (Homo sapiens, MOLT-4, 72 h) it was 1.55 nM; in assay [14] (Homo sapiens, Ramos, 72 h) it was 4.35 nM; in [15] (Homo sapiens, U-937, 72 h), 4.5 nM.
`C/C=C1\NC(=O)[C@H](Cc2ccccc2)NC(=O)[C@@H](C(C)C)NC(=O)[C@@H]([C@@H](C)CC)NC(=O)[C@H](NC(=O)[C@H](NC(=O)[C@H](CCCN)NC(=O)[C@H]2CCCN2C(=O)[C@H](NC(=O)[C@@H](NC(=O)[C@@H](NC(=O)[C@H](NC(=O)CC[C@@H](C)CC)C(C)C)[C@@H](C)O)C(C)C)C(C)C)[C@@H](C)CC)[C@@H](C)OC(=O)[C@H](C(C)C)NC1=O` [PM02734, (4S)-MeHex-D-Val-L-Thr-L-Val-D-Val-D-Pro-L-Orn-D-allo-Ile-cyclo(D-allo-Thr-D-allo-Ile-D-Val-L-Phe-Z-Dhb-L-Val)]: the IC50 in assay [2] (setting [19]) turned out to be 3600 nM; in assay [3] (SK-MEL-2, 72 hours drug exposure, MTT), 1760 nM; in assay [4] (72 h), 540 nM; in assay [5] (PANC-1, 72 hours drug exposure, MTT), 9000 nM; in [6] (setting [20]) it was 950 nM; in assay [7] (setting [21]) it was 333 nM. Besides, the IC50 in [9] (72 h) was determined as 2800 nM; in assay [10] (setting [22]), 5000 nM; in [11] (setting [23]) it was 214 nM; in assay [12] (setting [24]) it was 4080 nM. The EC50 in assay [13] (JURKAT, 72 hours exposure, MTT) came out at 5500 nM; in [16] (MOLT-4, 72 hours exposure, MTT), 14400 nM; in assay [14] (RAMOS, 72 hours exposure, MTT) it was 13600 nM; in assay [15] (U-937 tumor cell line, single agent) it was 6850 nM.
With aplidine, the IC50 in assay [2] (setting [19]) is 2.16 nM; in assay [6] (setting [20]) it was 9 nM; in [7] (setting [21]), 1.5 nM; in [10] (setting [22]), 1.5 nM; in [11] (setting [23]), 1.76 nM; in assay [12] (setting [24]) it was 3.8 nM. Also, the EC50 in [13] (JURKAT, 72 hours exposure, MTT) amounted to 13.8 nM; in assay [16] (MOLT-4, 72 hours exposure, MTT) it was 1.27 nM.
